Values of other authors in patent US8017624B2, “Fused aminopiperidines as dipeptidyi peptidase-IV inhibitors for the treatment or prevention of diabetes” (Merck Sharp & Dohme Corp., priority 2005, dated 2011).

What was measured:
[1] = tested on: cardiac allograft survival; settings: rats; Transplantation 63: 1495-1500 (1997)
hematopoiesis = settings: mouse, cyclophosphamide-induced neutropenia; WO 99/56753
DPP-IV = molecular target: T1, DPP-IV (Homo sapiens, UniProt P27487)
T1 construct: GRF is rapidly degraded in plasma to GRF[3-44]
T1 sequence (P27487 whole entry, species assumed): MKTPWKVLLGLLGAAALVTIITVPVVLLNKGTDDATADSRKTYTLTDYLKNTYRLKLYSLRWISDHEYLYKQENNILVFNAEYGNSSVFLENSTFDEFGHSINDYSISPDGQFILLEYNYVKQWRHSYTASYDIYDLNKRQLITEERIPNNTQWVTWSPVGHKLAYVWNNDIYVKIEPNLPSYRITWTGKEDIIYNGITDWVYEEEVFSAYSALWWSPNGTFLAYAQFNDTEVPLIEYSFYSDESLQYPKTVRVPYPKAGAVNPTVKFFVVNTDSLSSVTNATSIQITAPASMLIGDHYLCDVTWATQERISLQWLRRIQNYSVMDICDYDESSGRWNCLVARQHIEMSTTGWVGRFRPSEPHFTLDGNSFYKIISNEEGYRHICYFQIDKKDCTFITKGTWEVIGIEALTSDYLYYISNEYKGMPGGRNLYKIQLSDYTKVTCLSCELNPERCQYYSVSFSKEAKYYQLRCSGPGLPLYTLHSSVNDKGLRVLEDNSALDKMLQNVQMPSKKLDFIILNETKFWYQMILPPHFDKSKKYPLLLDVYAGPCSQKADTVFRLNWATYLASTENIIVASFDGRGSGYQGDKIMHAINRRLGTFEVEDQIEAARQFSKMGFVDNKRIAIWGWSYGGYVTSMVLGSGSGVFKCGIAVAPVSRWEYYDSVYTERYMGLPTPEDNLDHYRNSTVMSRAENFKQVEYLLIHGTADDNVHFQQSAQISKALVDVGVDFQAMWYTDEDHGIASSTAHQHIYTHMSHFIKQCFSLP

## CC(C)N1CCC(c2ccccc2)(c2ccccc2)CC1 [Prodipine, Pro-Pro-diphenyl-phosphonate]
[1]
  cardiac allograft survival: double cardiac allograft survival in rats from day 7 to day 14

## CC(C)[C@H](N)C(=O)N1CCC[C@H]1B(O)O [Val-Boro-Pro]
hematopoiesis
  effect on hematopoiesis: stimulated hematopoiesis

## CC[C@H](C)[C@H](N)C(=O)N1CCC[C@H]1C(=O)N[C@H](C(=O)O)[C@@H](C)CC [diprotin A]
DPP-IV
  degradation of GRF in plasma to GRF[3-44]: prevented
